From patent US20260008760A1, “DIPEPTIDYL PEPTIDASE 1 INHIBITORS AND USES THEREOF” (Insmed Incorporated, priority 2024, published 2026)

Key:
human DPP1 enzyme = human DPP1 enzyme (Homo sapiens, UniProt P53634); assay: Human DPP1 Enzyme IC50 Assay; assay type: biochemical; set-up: was first proteolytically processed into its mature form using recombinant human cathepsin L; purchased R&D Systems; settings: activated recombinant human DPP1, 400 μM H-Gly-Arg-AMC, 10 minutes pre-incubation at 37° C., pH 6.0; average of n runs; read-out: Avg. IC50 (Human DPP1 enzyme IC50 value ranges)
Outline: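 Recombinant human DPP1, pre-activated with cathepsin L (pH 4.5), was preincubated with compound 10 min at 37 °C in MES pH 6.0, 50 mM NaCl, 5 mM DTT, 1% DMSO. Cleavage of 400 μM (final) H-Gly-Arg-AMC followed by fluorescence (350/450 nm) over 90 min at 37 °C; IC50 from four-parameter logistic fit versus no-compound control.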

DPP1 in HL-60 cells = DPP1 in HL-60 cells (Homo sapiens, UniProt P53634); assay: DPP1 Cell IC50 assay; assay type: cell-based; set-up: host or cells: HL-60 cells; settings: 60 min pre-incubation, H-Gly-Phe-AFC substrate, average of n runs, read-out: Avg. IC50 (DPP1 Cell IC50 value ranges)
Experimental: Example 99. DPP1 Cell IC50 assay
HL-60 cells (ATCC; Manassas, VA) were maintained in RPMI-1640 supplemented with 20% heat-inactivated FBS and 1× Antibiotic Antimycotic (Cytiva; Marlborough, MA). Media was changed every three to four days and cells were not allowed to exceed 1×10^6 cells per mL. Prior to assay, cells were collected by centrifugation at 500 rcf for 3 minutes, resuspended in PBS and counted. Cells were diluted in PBS to a concentration of 5×10^5 live cells per mL and transferred to black 96-well plates for assay, 60 μL per well. Test articles were diluted in PBS plus 0.5% DMSO, and 20 μL was added to each assay well. Compound was allowed to pre-incubate with cells with gentle shaking at 100 rpm for 60 minutes at 37° C. in a cell culture incubator maintained at 5% CO2, after which 20 μL of 500 μM H-Gly-Phe-AFC substrate (MP Biomedicals; Solon, OH) was added to each well. Plates were returned to the incubator with shaking at 100 rpm for 30 minutes, after which fluorescence was measured at Excitation/Emission 400/505 nm. % Inhibition was calculated from RFU values compared to control cell wells that received only PBS plus 0.5% DMSO. IC50 values for each compound were calculated via the XLFit (IDBS Version 5.3.1.3) Add-On to Microsoft Excel using the four parameter fit equation y=(A+((B−A)/(1+((C/x)^D)))), which appears as equation number 205 (4 Parameter Logistic Model or Sigmoidal Dose-Response Model) in XLFit. IC50 was defined as the compound concentration at which 50% of enzyme activity was inhibited when compared to the no-compound control.

DPP1 in HL-60 cells, sequence (P53634 25-463): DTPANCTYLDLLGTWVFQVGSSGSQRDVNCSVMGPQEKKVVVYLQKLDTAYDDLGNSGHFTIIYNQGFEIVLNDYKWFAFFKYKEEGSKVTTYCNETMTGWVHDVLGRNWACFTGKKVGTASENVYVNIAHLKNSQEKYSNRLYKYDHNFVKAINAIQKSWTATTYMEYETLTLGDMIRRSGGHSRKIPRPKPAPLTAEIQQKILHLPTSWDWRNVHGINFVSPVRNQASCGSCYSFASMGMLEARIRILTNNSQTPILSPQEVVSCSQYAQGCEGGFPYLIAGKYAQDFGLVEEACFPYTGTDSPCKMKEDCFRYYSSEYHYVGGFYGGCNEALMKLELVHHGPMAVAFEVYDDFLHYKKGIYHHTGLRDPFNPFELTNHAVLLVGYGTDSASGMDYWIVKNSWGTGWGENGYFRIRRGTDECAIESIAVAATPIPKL
human DPP1 enzyme, sequence (P53634 25-134 limits assumed): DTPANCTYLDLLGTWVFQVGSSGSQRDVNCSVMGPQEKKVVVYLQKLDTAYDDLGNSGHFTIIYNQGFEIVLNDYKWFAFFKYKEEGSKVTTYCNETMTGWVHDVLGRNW
human DPP1 enzyme, sequence (P53634 231-394 limits assumed): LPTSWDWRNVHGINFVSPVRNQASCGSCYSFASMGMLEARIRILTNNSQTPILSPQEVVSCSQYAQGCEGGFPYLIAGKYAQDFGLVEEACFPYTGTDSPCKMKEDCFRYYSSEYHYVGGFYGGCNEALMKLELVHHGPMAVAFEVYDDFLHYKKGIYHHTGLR
human DPP1 enzyme, sequence (P53634 395-463 limits assumed): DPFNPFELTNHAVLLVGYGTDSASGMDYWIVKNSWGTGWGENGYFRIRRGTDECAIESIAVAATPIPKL

Row | IC50 (human DPP1 enzyme) [nM] | IC50 (DPP1 in HL-60 cells) [nM] | SMILES
1 | > 15 | > 2.5 | C[C@@H]1NC[C@@H](C(=O)N[C@H](C#N)Cc2ccc(-c3ccc4c(c3)CCC(=O)N4C)cc2)OC[C@@H]1O [Compound A148]
2 | > 15 | 1 to 2.5 | CN1C(=O)CCc2cc(-c3ccc(C[C@@H](C#N)NC(=O)[C@@H]4CNCC[C@@H](F)CO4)cc3)ccc21 [Compound A149]
3 | < 5 | 1 to 2.5 | CO[C@@H]1CCNC[C@@H](C(=O)N[C@H](C#N)Cc2ccc(-c3ccc4c(c3)CCC(=O)N4C)cc2F)OC1 [Compound A151]
4 | < 5 | < 1 | COC1CNC[C@@H](C(=O)N[C@H](C#N)Cc2ccc(-c3ccc4c(c3)CCC(=O)N4C)cc2F)OC1 (stereo partly drawn) [Compound A152]
5 | < 5 | < 1 | CO[C@H]1CCO[C@H](C(=O)N[C@H](C#N)Cc2ccc(-c3ccc4c(c3)CCC(=O)N4C)cc2F)CNC1 [Compound A153]
6 | 5 to 15 | 1 to 2.5 | C[C@@H]1NC[C@@H](C(=O)N[C@H](C#N)Cc2ccc(-c3ccc4c(c3)CCC(=O)N4C)cc2F)OC[C@@H]1O [Compound A154]
7 | 5 to 15 | 1 to 2.5 | CN1C(=O)CCc2cc(-c3ccc(C[C@@H](C#N)NC(=O)[C@@H]4CNCC[C@@H](F)CO4)c(F)c3)ccc21 [Compound A155]
8 | < 5 | < 1 | COC1CNC[C@@H](C(=O)N[C@H](C#N)Cc2ccc(-c3ccc4c(F)nn(C)c4c3)cc2)OC1 (stereo partly drawn) [Compound A158]

The next lines start with the compound.

Row | SMILES | IC50 (human DPP1 enzyme) [nM] | IC50 (DPP1 in HL-60 cells) [nM]
9 | CO[C@H]1CCO[C@H](C(=O)N[C@H](C#N)Cc2ccc(-c3ccc4c(n3)CCCN4)cc2F)CNC1 [Compound A49, (2S,6S)—N-[(1S)-1-cyano-2-[2-fluoro-4-(5,6,7,8-tetrahydro-1,5-naphthyridin-2-yl)phenyl]ethyl]-6-methoxy-1,4-oxazocane-2-carboxamide] | 5 to 15 | > 2.5
10 | CO[C@@H]1CCNC[C@@H](C(=O)N[C@H](C#N)Cc2ccc(-c3ccc4c(n3)CCCN4)cc2F)OC1 [Compound A50, (2S,7R)—N-[(1S)-1-cyano-2-[2-fluoro-4-(5,6,7,8-tetrahydro-1,5-naphthyridin-2-yl)phenyl]ethyl]-7-methoxy-1,4-oxazocane-2-carboxamide] | < 5 | 1 to 2.5
11 | N#C[C@H](Cc1ccc(-c2cc3cnccn3c2)cc1)NC(=O)[C@@H]1CNCCCO1 [Compound A54] | > 15 | > 2.5
12 | Cc1cc2cc(-c3ccc(C[C@@H](C#N)NC(=O)[C@@H]4CNCCCO4)cc3)cn2c(C)n1 [Compound A57] | > 15 | > 2.5
13 | Cc1nc(C)c2cc(-c3ccc(C[C@@H](C#N)NC(=O)[C@@H]4CNCCCO4)cc3)cn2c1C [Compound A60] | > 15 | > 2.5
14 | Cc1ncc(C)n2cc(-c3ccc(C[C@@H](C#N)NC(=O)[C@@H]4CNCCCO4)cc3)cc12 [Compound A63] | > 15 | > 2.5
15 | N#C[C@H](Cc1ccc(-c2cc3c(F)nccn3c2)cc1)NC(=O)[C@@H]1CNCCCO1 [Compound A66] | > 15 | > 2.5
16 | CO[C@@H]1CNC[C@@H](C(=O)N[C@H](C#N)Cc2ccc(-c3cc4c(C)nc(C)cn4c3)cc2F)OC1 [Compound A88-A] | > 15 | > 2.5
17 | CO[C@H]1CNC[C@@H](C(=O)N[C@H](C#N)Cc2ccc(-c3cc4c(C)nc(C)cn4c3)cc2F)OC1 [Compound A88-B] | < 5 | < 1
18 | Cn1ccc2ncc(-c3ccc(C[C@@H](C#N)NC(=O)[C@@H]4CNCCCO4)cc3)cc21 [Compound A143] | > 15 | > 2.5
19 | CO[C@@H]1CCNC[C@@H](C(=O)N[C@H](C#N)Cc2ccc(-c3ccc4c(c3)CCC(=O)N4C)cc2)OC1 [Compound A145] | < 5 | 1 to 2.5
20 | COC1CNC[C@@H](C(=O)N[C@H](C#N)Cc2ccc(-c3ccc4c(c3)CCC(=O)N4C)cc2)OC1 (stereo partly drawn) [Compound A146] | < 5 | < 1
21 | CO[C@H]1CCO[C@H](C(=O)N[C@H](C#N)Cc2ccc(-c3ccc4c(c3)CCC(=O)N4C)cc2)CNC1 [Compound A147] | 5 to 15 | 1 to 2.5
